Where two headings read alike, the source gives them in different places.

In assay [1] the target is T1, human serum albumin (HSA) (Homo sapiens, UniProt P02768). The experiment in a line: fluorescence titration. Format: binding.
Assay [2] addresses T1, human serum albumin (HSA). In words: fluorescence titration. The assay is classed as binding. The source holds these as a separate data set.

T1 sequence (P02768 25-609): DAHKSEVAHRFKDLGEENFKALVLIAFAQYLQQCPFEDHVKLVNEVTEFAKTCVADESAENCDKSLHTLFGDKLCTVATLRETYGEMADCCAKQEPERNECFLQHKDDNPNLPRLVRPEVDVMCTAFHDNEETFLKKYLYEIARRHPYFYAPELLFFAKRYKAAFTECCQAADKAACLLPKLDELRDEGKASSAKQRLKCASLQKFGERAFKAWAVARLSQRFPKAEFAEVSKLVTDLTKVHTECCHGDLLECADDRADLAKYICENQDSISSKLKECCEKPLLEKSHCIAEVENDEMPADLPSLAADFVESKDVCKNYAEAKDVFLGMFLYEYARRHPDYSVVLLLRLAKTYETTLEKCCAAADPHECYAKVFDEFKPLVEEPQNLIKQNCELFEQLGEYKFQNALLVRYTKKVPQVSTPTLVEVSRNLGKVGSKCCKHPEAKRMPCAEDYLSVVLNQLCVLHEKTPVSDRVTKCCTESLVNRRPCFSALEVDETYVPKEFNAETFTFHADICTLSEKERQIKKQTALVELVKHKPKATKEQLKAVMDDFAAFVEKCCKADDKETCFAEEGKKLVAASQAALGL

As for `COc1cc(/C=C/C2=C(C#N)C(=C(C#N)C#N)OC2(C)C)cc(OC)c1O` [compound 1, (E)-2-(3-cyano-4-(4-hydroxy-3,5-dimethoxystyryl)-5,5-dimethylfuran-2(5H)-ylidene)malononitrile], the dissociation constant (Kd) (usually a measure of binding affinity in units of concentration) in assay [1] is 6.67 µM.

Turning to `CC1(C)OC(=C(C#N)C#N)C(C#N)=C1/C=C/c1ccc(O)cc1` [compound 2, fluorophore 2], the Kd in assay [2] was 5.26 µM.
